# Columns and labels:
# Format in all cases: cell-based, human
# HF57 cells = experiment: qRT-PCR relative transcript levels (FIG. 21B, FIG. 32); settings: for transcripts level of DNMT1 / transcripts level of MTHFR / transcripts level of MTR / relative transcripts level of Nanog / relative transcripts level of Oct4 / relative transcripts level of Sox2: FIG. 21B; for relative transcripts level of Nanog / relative transcripts level of Oct4 / relative transcripts level of Sox2: vs control cells
# Experimental: Also, the cells were treated with PTX for 2-days only. Since exposure time of PTX or MTX is very critical for gene expression or other genetic changes, the expression of ANOS could be higher after prolonged exposure to PTX.
# To validate microarray results, quantitative 2-step RT-PCR was performed. One microgram of total RNA was reverse transcribed to first-strand cDNA with the Qiagen cDNA Synthesis Kit (Qiagen), and this cDNA was subsequently used as a template for quantitative PCR with gene-specific primers. The ubiquitous β-actin gene served as a control for constitutive gene expression. The quantitative RT-PCR (qRT-PCR) reactions were performed using Power Sybr Green PCR Master Mix (Thermo Fisher Scientific) on a CFX96 Touch Real-Time PCR Detection System (Bio-Rad, Hercules, CA, USA). Relative expression levels (2^−ΔCt) were calculated according to the Livak and Schmittgen method (40). Expression levels of each gene were compared with the expression level of actin.
# The quiescent nature of the MTX and PTX cells and the association of demethylation with the generation of induced pluripotent stem cells led to examining markers for stem cells formation. The 293T and HF57 cells were grown on 5% dialyzed FBS DMEM medium. DMEM without methionine, DMEM with 15 mg/L (half dose) and DMEM with 30 mg/L (regular DMEM) were used to grow the cells. Once the cells attained 70% confluency, HF57 were treated with 1-μM MTX or PTX and HEK293T were treated with 500 nM MTX or 1 μM PTX. The cells were treated with MTX or PTX for 7-days, and subsequently the medium was replaced with N2B27 medium (Thermo Fisher Scientific, USA). The cells were grown in N2B27 medium for 15 days which supported undifferentiated growth of human embryonic stem cells. Subsequently, these cells were maintained in MTeSR medium supplemented with sodium hypoxanthine and thymidine (HT) for 15 or more days. These conditions supported prolonged self-renewal of putative pluripotent cells, and they were able to form colonies and later embryoid bodies in vitro. Subsequently, the cells were assessed for markers linked to stem cells. Transcriptomics and qRT-PCR were performed to examine whether ES cell marker genes were expressed in these cells. Both MTX and PTX treated cells expressed the marker genes (FIGS. 20-21 and 25-26). […] To authenticate these findings, two key pluripotency markers (SSEA-4 and TRA 1-60) were examined using immunofluorescence.
# HEK293T cells = experiment: 3-germ layer immunocytochemistry of embryoid bodies (FIG. 29); settings: compared with H1 and iPSCs
# Excerpt: (§1) Pluripotent cells can differentiate into all cell types, so these cells can be a biological resource for regenerative medicine. Somatic cells can acquire the embryonic stem cell-like pluripotency by the introduction of four transcription factors, Oct4, Sox2, Klf4 and c-Myc (Yamanaka factors). Murine ES-like cell lines were established from mouse embryonic fibroblasts (MEFs) and skin fibroblasts by simply expressing these four transcription factor genes encoding Oct4, Sox2, Klf4, and c-Myc (71). After introducing active transcription factors into somatic cells, the somatic cells closely resemble ES cells in gene expression patterns, cell biologic and phenotypic characteristics. Since then, numerous studies have established that these transcription factors mediate reprogramming regardless of developmental origins and epigenetic states of a cell. These transcription factors are non-functional in somatic cells due to gene silencing. […] Using the technology disclosed herein, nuclear reprogramming of somatic cells was induced possibly due to active Oct4, Sox2, Nanog, and other pluripotency genes, reduced DNA methylation, reduced histone methylation, and altered metabolism of certain biochemical factors (such as glutamine, glutamate, and GABA). This leads to the formation of embryoid bodies from single cells and differentiation into the mesoderm, endoderm, and neuronal ectoderm lineages with high efficiency in the differentiation medium. The 3-Germ Layer Immunocytochemistry Kit (ThermoFisher Scientific, USA), which analyzes spontaneously differentiated embryoid bodies derived from pluripotent stem cells for the presence of all 3-germ layers, was used to confirm the reprogramming. The assay detected widely accepted markers characteristic of the three embryonic germ layers: beta-Ill tubulin (TUJ1) for ectoderm, smooth muscle actin (SMA) for mesoderm, and alpha-fetoprotein (AFP) for endoderm. […] The ectoderm which differentiates to form the nervous system (spine, peripheral nerves, neurons, and brain) was not tested with this kit; however, the presence of neurons was confirmed by a different marker. A Human Neural Stem Cell Immunocytochemistry Kit (ThermoFisher Scientific, USA) which enables a convenient image-based analysis of common markers of human neural stem cells such as Nestin was used. […] Together, the disclosed methods result in the presence of all 3-germ layers in the MTX/PTX treated cells and these treated cells can differentiate into all cell types including beta cells.
# (§2) A 3-germ layer immunocytochemistry kit (Thermo Fisher Scientific, USA) was used to assess the pluripotency of embryoid bodies derived from MTX and PTX treated cells.
# HF57 = experiment: as above; settings: compared with H1 and iPSCs
# Excerpt: as §1, §2
# [1] = Cardiomyocyte differentiation, correlative immunostaining (FIG. 31); settings: MTX Treated; vs H1 positive and untreated negative control
# Experimental: (§3) MTX/PTX treated and SSEA4 positive cells were maintained on Matrigel-coated 6-well plates in mTeSR1 medium. To induce differentiation, cells with EB-like morphology were dissociated with Accutase (Invitrogen) at 37° C. for 5 minutes and then single cell suspension was seeded onto a Matrigel-coated cell-culture dish at 100,000 cell/cm^2 in mTeSR1 supplemented with 5 μM ROCK inhibitor (Y-27632) for 24 hours. The cells then were cultured in mTeSR1 medium, which was changed daily. Next, 8 μl of 36 mM CHIR99021 were added into 24 ml RPMI/B27-insulin medium to make 12 μM CHIR99021 RPMI/B27-insulin medium and 2-ml of this were added to each well after the old mTeSR1 medium was removed. Exactly 24 hours after adding CHIR, the medium was replaced with 2 ml room temperature RPMI/B27-insulin. The plate was put back into the 37° C., 5% CO2 incubator. 72 hours post addition of CHIR99021, 1 ml medium from each well was removed and the remaining 1-ml was supplemented with 1-ml RPMI/B27-insulin with 5 μM IWP2 (WNT pathway inhibitor). After 48 hours, the medium was replaced with fresh RPMI/B27-insulin and this was incubated at 37° C., 5% CO2 incubator. After this, every 2-days, the old medium was removed from each well of the 12-well plate and 2 ml/well room temperature RPMI/B27 medium was added and incubated at 37° C., 5% CO2. […]
# 293T cells = experiment: as above; settings: MTX Treated; vs H1 positive and untreated negative control
# Experimental: as §3
# [2] = system: MTX/PTX treated and SSEA4 positive cells; experiment: Cardiomyocyte marker expression in cardiomyocytes differentiation medium (FIG. 31)
# Experimental: MTX/PTX treated and SSEA4 positive cells were maintained on Matrigel-coated 6-well plates in mTeSR1 medium. To induce differentiation, cells with EB-like morphology were dissociated with Accutase (Invitrogen) at 37° C. for 5 minutes and then single cell suspension was seeded onto a Matrigel-coated cell-culture dish at 100,000 cell/cm^2 in mTeSR1 supplemented with 5 μM ROCK inhibitor (Y-27632) for 24 hours. The cells then were cultured in mTeSR1 medium, which was changed daily. Next, 8 μl of 36 mM CHIR99021 were added into 24 ml RPMI/B27-insulin medium to make 12 μM CHIR99021 RPMI/B27-insulin medium and 2-ml of this were added to each well after the old mTeSR1 medium was removed. Exactly 24 hours after adding CHIR, the medium was replaced with 2 ml room temperature RPMI/B27-insulin. The plate was put back into the 37° C., 5% CO2 incubator. 72 hours post addition of CHIR99021, 1 ml medium from each well was removed and the remaining 1-ml was supplemented with 1-ml RPMI/B27-insulin with 5 μM IWP2 (WNT pathway inhibitor). After 48 hours, the medium was replaced with fresh RPMI/B27-insulin and this was incubated at 37° C., 5% CO2 incubator. After this, every 2-days, the old medium was removed from each well of the 12-well plate and 2 ml/well room temperature RPMI/B27 medium was added and incubated at 37° C., 5% CO2. Spontaneous contraction should occur by day 14 and spontaneous beating can be maintained for several weeks. […] The expression of the key cardiomyocyte markers, Nkx2, which is an early cardiac transcriptional factor, indicative of cardiac progenitor phenotype, and cTNT, which is cardiac troponin T, a muscle contractility regulatory protein, indicative of a mature cardiac phenotype, were tested.
SMILES,transcripts level of DNMT1 (HF57 cells),transcripts level of MTHFR (HF57 cells),transcripts level of MTR (HF57 cells),relative transcripts level of Nanog (HF57 cells),relative transcripts level of Oct4 (HF57 cells),relative transcripts level of Sox2 (HF57 cells),presence of three germ layers in embryoid bodies (HEK293T cells),presence of three germ layers in embryoid bodies (HF57),cardiac muscle cells in the differentiation medium [1],cardiac muscle cells in the differentiation medium (293T cells),expression of Nkx2 [2],expression of cTNT [2],expression of ANKRD1 (HF57 cells; treated for 2-days),expression of ANOS (HF57 cells; treated for 2-days)
"CN(Cc1cnc2nc(N)nc(N)c2n1)c1ccc(C(=O)N[C@@H](CCC(=O)O)C(=O)O)cc1 [MTX, methotrexate]",significantly reduced,significantly reduced,significantly reduced,significantly higher,significantly higher,significantly higher,confirmed the presence of all three germ layers,confirmed the presence of all three germ layers,had cardiac muscle cells,had cardiac muscle cells,significantly up-regulated,significantly up-regulated,–,–
"Nc1nc2[nH]cc(CCc3ccc(C(=O)N[C@@H](CCC(=O)O)C(=O)O)cc3)c2c(=O)[nH]1 [PTX, pemetrexed]",significantly reduced,significantly reduced,significantly reduced,significantly higher,significantly higher,significantly higher,confirmed the presence of all three germ layers,confirmed the presence of all three germ layers,–,–,significantly up-regulated,significantly up-regulated,significantly higher than control,significantly higher than control

# Reference: patent publication US20250171744A1, “METHODS OF REPROGRAMMING SOMATIC CELLS AND MATERIALS RELATED THERETO” (CITY OF HOPE, priority 2019, published 2025)
